Data: patent US20260083750A1, “SMALL MOLECULE INHIBITORS OF KRAS PROTEINS” (MERCK SHARP & DOHME LLC, priority 2022, published 2026)

What was measured:
[1] = test system: SW620 cells (homozygous KRAS-G12V activating mutation); assay: Cellular phospho-ERK assay in G12V cell line; type: cell-based; details: Homo sapiens, SW-620, 2 hours compound incubation, ratio of p-ERK vs. total ERK, read-out: SW620 pERK IC50
Description: Procedure for Cellular Phospho-ERK Assay in G12D and G12V Cell Lines
PANC08.13 cells (ATCC® CRL-2551™), containing homozygous KRAS-G12D activating mutation, were cultured in growth medium made of RPMI1640-GlutaMAX™—I (ThermoFisher Scientific 61870) containing 15% heat inactivated fetal bovine serum (ThermoFisher Scientific 10091148)). SW620 cells (ATCC® […]), containing homozygous KRAS-G12V activating mutation, were cultured in growth medium that contains RPMI 1640-GlutaMAX™—I (ThermoFisher Scientific 61870) containing 10% heat inactivated fetal bovine serum (ThermoFisher Scientific 10091148).
Cells for the assay were harvested in growth medium after TrypLE (ThermoFisher scientific 12604021) digestion and were seeded in a 384-well collagen coated cell culture plate (Corning 356702) at a density of 10,000-15,000 cells/20 uL/well, and incubated at 37° C., 5% CO2 overnight. The compound (with 10 mM stock concentration) dose-response titrations were prepared [30 μM final ERK detection assay concentration and 1:3 dilutions, 10-point dose response] and appropriate amounts (270 nL) of test compounds were dispensed in a 384-well intermediate plate using an Echo 550 liquid handler. 30 uL/well of RPMI medium 1640-GlutaMAX™—I was added to the intermediate plate and the contents of the intermediate plate (10 uL/well) were then transferred to the 384-well collagen coated cell culture plate, which was incubated at 37° C., 5% CO2 for 2 hours. After removal of medium from the collagen coated cell culture plate, cells were lysed in lysis buffer from Alpha SureFire® Ultra™ Multiplex p-ERK and total ERK assay kit (PerkinElmer MPSU-PTERK) containing Halt™ Protease and Phosphatase inhibitor cocktail (ThermoFisher Scientific 78446) at room temperature with constant shaking at 300 rpm for 30 minutes. The cell lysates were then transferred to an OptiPlate-384 plate (PerkinElmer 6005620), and the phosphorylation of ERK (p-ERK) and total ERK levels were detected by Alpha SureFire® Ultra™ Multiplex p-EEK kit and total ERK assay kit (PerkinElmer MPSU-PTERK) following the manufacturer's protocol. Assay plates were read on a EnVision Multimode Plate Reader (PerkinElmer), and the ratio of p-ERK vs. total ERK in each well was used as the final readout. Dose response curves were analyzed using a 4-parameter logistic model to calculate IC50 values using Spotfire software.

[2] = target: T1, KRAS-G12D (Homo sapiens, UniProt P01116, G12D); assay: SOS-catalyzed nucleotide exchange assay (Procedure A, TR-FRET); type: biochemical; details: 60 min preincubation, SOS + GTP, read-out: KRAS G12D GNE IC50
T1 construct: N-terminal biotin-acceptor peptide […]
Method in brief: (§1)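 Preformed biotinylated RAS–Bodipy-GDP/Tb-streptavidin complex preincubated with compound 60 min at room temperature, then SOS plus GTP (3 mM final) added. Exchange times: G13D 30 min, G12C/D 60 min, G12V 90 min. Final RAS/SOS: G12C 3 nM/40 nM, G12D 1 nM/40 nM, G12V 1.25 nM/160 nM, G13D 1.25 nM/0 nM. TR-FRET 520/495 ratio, four-parameter fit.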

[3] = target: T2, KRAS-G13D (Homo sapiens, UniProt P01116, G13D); assay: as above; type: biochemical; details: 60 min preincubation, GTP, read-out: KRAS G13D GNE IC50
T2 construct: N-terminal biotin-acceptor peptide […]
Method in brief: as §1

[4] = target: T3, KRAS-G12C (C51S/C80L/C118S) (Homo sapiens, UniProt P01116, C118S/C51S/C80L/G12C); assay: as above; type: biochemical; details: 60 min preincubation, SOS + GTP, read-out: KRAS G12C GNE IC50
T3 construct: N-terminal biotin-acceptor peptide […]
Method in brief: as §1

[5] = target: T4, KRAS-G12V (Homo sapiens, UniProt P01116, G12V); assay: as above; type: biochemical; details: 60 min preincubation, SOS + GTP, read-out: KRAS G12V GNE IC50
T4 construct: N-terminal biotin-acceptor peptide […]
Method in brief: as §1

[6] = test system: PANC08.13 cells (homozygous KRAS-G12D activating mutation); assay: Cellular phospho-ERK assay in G12D cell line; type: cell-based; details: Homo sapiens, PANC-08-13, 2 hours compound incubation, ratio of p-ERK vs. total ERK, read-out: PANC 0813 pERK IC50
Method in brief: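 Cells (10,000-15,000/well) were seeded overnight, then treated for 2 h at 37 °C with a 10-point 1:3 titration from 30 μM final. Lysates were assayed by AlphaLISA SureFire Ultra multiplex, with the p-ERK/total-ERK ratio as read-out; IC50 came from a 4-parameter logistic fit.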

[7] = target: NRAS (Homo sapiens, UniProt P01111); assay: SOS-catalyzed nucleotide exchange assay (Procedure A, TR-FRET); type: biochemical; details: 60 min preincubation, SOS + GTP, read-out: NRAS GNE IC50
Method in brief: (§2)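 Biotinylated WT-sequence HRAS or NRAS (1.25 nM final) loaded with Bodipy-GDP plus Tb-streptavidin, preincubated 60 min with compound (10-point, 3-fold). Exchange started with human SOS (40 nM) and 3 mM GTP, 60 min at room temperature, pH 7.5 Mg buffer. TR-FRET 520/495 ratio normalised to DMSO and saturating inhibitor, four-parameter fit.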

[8] = target: HRAS (Homo sapiens, UniProt P01112); assay: as above; type: biochemical; details: 60 min preincubation, SOS + GTP, read-out: HRAS GNE IC50
Method in brief: as §2

T1 sequence (P01116 with tags, fused parts or gaps isoform P01116-2 G12D): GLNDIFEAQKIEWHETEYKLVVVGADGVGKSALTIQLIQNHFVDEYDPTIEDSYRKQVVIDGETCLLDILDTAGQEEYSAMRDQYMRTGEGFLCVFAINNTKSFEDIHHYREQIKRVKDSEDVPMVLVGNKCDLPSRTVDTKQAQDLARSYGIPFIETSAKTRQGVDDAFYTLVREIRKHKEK
NRAS, sequence (P01111 with tags, fused parts or gaps): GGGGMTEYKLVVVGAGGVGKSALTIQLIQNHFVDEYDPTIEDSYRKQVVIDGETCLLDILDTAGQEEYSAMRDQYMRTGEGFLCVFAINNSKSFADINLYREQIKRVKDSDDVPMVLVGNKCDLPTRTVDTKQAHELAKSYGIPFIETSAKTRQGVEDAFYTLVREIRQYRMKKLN
T3 sequence (P01116 with tags, fused parts or gaps isoform P01116-2 G12C/C51S/C80L/C118S): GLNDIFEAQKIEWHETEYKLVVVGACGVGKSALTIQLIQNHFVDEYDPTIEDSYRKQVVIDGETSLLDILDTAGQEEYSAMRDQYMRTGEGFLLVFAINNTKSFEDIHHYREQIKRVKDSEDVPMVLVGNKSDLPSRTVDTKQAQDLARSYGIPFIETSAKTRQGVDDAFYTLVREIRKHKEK
T4 sequence (P01116 with tags, fused parts or gaps isoform P01116-2 G12V): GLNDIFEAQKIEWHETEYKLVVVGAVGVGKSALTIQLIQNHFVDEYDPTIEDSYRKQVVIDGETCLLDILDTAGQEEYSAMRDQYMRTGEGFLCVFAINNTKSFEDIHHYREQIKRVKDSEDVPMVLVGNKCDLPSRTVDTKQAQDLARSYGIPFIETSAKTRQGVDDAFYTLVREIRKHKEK
T2 sequence (P01116 with tags, fused parts or gaps isoform P01116-2 G13D): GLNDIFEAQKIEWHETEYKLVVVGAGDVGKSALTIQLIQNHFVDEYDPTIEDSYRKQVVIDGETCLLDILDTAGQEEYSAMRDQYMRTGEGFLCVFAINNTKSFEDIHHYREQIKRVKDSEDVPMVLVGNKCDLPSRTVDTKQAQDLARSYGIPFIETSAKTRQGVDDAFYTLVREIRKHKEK
HRAS, sequence (P01112 with tags, fused parts or gaps): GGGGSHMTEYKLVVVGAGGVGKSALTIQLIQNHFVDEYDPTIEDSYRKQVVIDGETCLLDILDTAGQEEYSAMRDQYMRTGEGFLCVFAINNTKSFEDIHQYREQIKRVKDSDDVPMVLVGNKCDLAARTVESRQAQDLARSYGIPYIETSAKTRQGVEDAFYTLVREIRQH

Row | Structure (SMILES) | IC50 [1] | IC50 [2] | IC50 [3] | IC50 [4] | IC50 [5] | IC50 [6] | IC50 [7] | IC50 [8]
1 | CC1(NC[C@@]2(COc3nc(N4CCCOCC4)c4cc(Cl)c(-c5ccc(F)c6sc(N)c(C#N)c56)c(F)c4n3)CC2(F)F)CCC1 [compound 28, 2-amino-4-(6-chloro-2-(((R)-2,2-difluoro-1-(((1-methylcyclobutyl)ami-no)methyl)cyclopropyl)methoxy)-8-fluoro-4-(1,4-oxazepan-4-yl)quinazolin-7-yl)-7-fluorobenzo[b]thiophene-3-carbonitrile] | 867 nM | 1850 nM | 255 nM | 78.2 nM | 99.5 nM | 2420 nM | > 11100 nM | > 11100 nM
2 | N#Cc1c(N)sc2c(F)ccc(-c3ncc4c(N5CCCOCC5)nc(OC[C@@]56CCCN5C[C@H](F)C6)nc4c3F)c12 [Ex. 20, 2-amino-7-fluoro-4-(8-fluoro-2-(((2R,7aS)-2-fluorotetrahydro-1H-pyrrolizin-7a(5H)-yl)methoxy)-4-(1,4-oxazepan-4-yl)pyrido[4,3-d]pyrimidin-7-yl)benzo[b]thiophene-3-carbonitrile] | 510 nM | 294 nM | 93.1 nM | 75.5 nM | 60 nM | 1420 nM | > 11100 nM | > 11100 nM
3 | N#Cc1c(N)sc2c(F)ccc(-c3c(Cl)cc4c(N5CCOCC(F)C5)nc(OC[C@@]56CCCN5C[C@H](F)C6)nc4c3F)c12 (stereo partly drawn) [compound 11, 2-amino-4-(6-chloro-8-fluoro-4-(6-fluoro-1,4-oxazepan-4-yl)-2-(((2R,7aS)-2-fluorotetrahydro-1H-pyrrolizin-7a(5H)-yl)methoxy)quinazo-lin-7-yl)-7-fluorobenzo[b]thio-phene-3-carbonitrile] | 21.9 nM | 8.27 nM | 6.85 nM | 18.2 nM | 6.4 nM | 39.9 nM | > 11100 nM | > 11100 nM
4 | CN(C)C[C@@]1(COc2nc(N3CCCOCC3)c3cc(Cl)c(-c4ccc(F)c5sc(N)c(C#N)c45)c(F)c3n2)CC1(F)F [Ex. 24, 2-amino-4-(6-chloro-2-(((R)-1-((dimethylamino)methyl)-2,2-difluorocyclopropyl)methoxy)-8-fluoro-4-(1,4-oxazepan-4-yl)quinazolin-7-yl)-7-fluorobenzo[b]thiophene-3-carbonitrile] | 93.1 nM | 51.8 nM | 28.8 nM | 30.4 nM | 9.52 nM | 233 nM | > 11100 nM | > 11100 nM
5 | CC(C)NC[C@@]1(COc2nc(N3CCCOCC3)c3cc(Cl)c(-c4ccc(F)c5sc(N)c(C#N)c45)c(F)c3n2)CC1(F)F [compound 26, 2-amino-4-(6-chloro-2-(((R)-2,2-difluoro-1-((isopropylamino)meth-yl)cyclopropyl)meth-oxy)-8-fluoro-4-(1,4-oxazepan-4-yl)quinazolin-7-yl)-7-fluorobenzo[b]thiophene-3-carbonitrile] | 357 nM | 177 nM | 59.4 nM | 54.9 nM | 22.6 nM | 992 nM | > 11100 nM | > 11100 nM
6 | Cc1cc(N)nc(-c2c(Cl)cc3c(N4CCCCOCC4)nc(OC[C@@]45CCCN4C[C@H](F)C5)nc3c2F)c1C(F)(F)F [Ex. 39, 6-(6-chloro-8-fluoro-2-(((2R,7aS)-2-fluorotetrahydro-1H-pyrrolizin-7a(5H)-yl)methoxy)-4-(1,4-oxazocan-4-yl)quinazolin-7-yl)-4-methyl-5-(trifluoromethyl)pyridin-2-amine] | 422 nM | 515 nM | 145 nM | 63.1 nM | 32.2 nM | 1320 nM | > 11100 nM | > 11100 nM
7 | CC(C)(C)NC[C@@]1(COc2nc(N3CCCOCC3)c3cc(Cl)c(-c4ccc(F)c5sc(N)c(C#N)c45)c(F)c3n2)CC1(F)F [compound 25, 2-amino-4-(2-(((R)-1-((tert-butylamino)methyl)-2,2-difluorocyclopropyl)methoxy)-6-chloro-8-fluoro-4-(1,4-oxazepan-4-yl)quinazolin-7-yl)-7-fluorobenzo[b]thiophene-3-carbonitrile] | 407 nM | 247 nM | 52.9 nM | 28.6 nM | 17.7 nM | 1310 nM | > 11100 nM | > 11100 nM
8 | CC1CCN(c2nc(OC[C@@]34CCCN3C[C@H](F)C4)nc3c(F)c(-c4ccc(F)c5sc(N)c(C#N)c45)c(Cl)cc23)CCO1 (stereo partly drawn) [compound 10, 2-amino-4-(6-chloro-8-fluoro-2-(((2R,7aS)-2-fluorotetrahydro-1H-pyrrolizin-7a(5H)-yl)methoxy)-4-(7-methyl-1,4-oxazepan-4-yl)quinazolin-7-yl)-7-fluorobenzo[b]thio-phene-3-carbonitrile] | 538 nM | 700 nM | 110 nM | 47.3 nM | 41.7 nM | 2600 nM | > 11100 nM | > 11100 nM
9 | CC1CN(c2nc(OC[C@@]34CCCN3C[C@H](F)C4)nc3c(F)c(-c4ccc(F)c5sc(N)c(C#N)c45)c(Cl)cc23)CCCO1 (stereo partly drawn) [compound 9, 2-amino-4-(6-chloro-8-fluoro-2-(((2R,7aS)-2-fluorotetrahydro-1H-pyrrolizin-7a(5H)-yl)methoxy)-4-(2-methyl-1,4-oxazepan-4-yl)quinazolin-7-yl)-7-fluorobenzo[b]thio-phene-3-carbonitrile] | 101 nM | 24.4 nM | 8.74 nM | 23.1 nM | 6.17 nM | 155 nM | > 11100 nM | > 11100 nM
10 | Cc1cc2[nH]ncc2c(-c2c(F)cc3c(N4CCCOCC4)nc(OC[C@@]45CCCN4C[C@H](F)C5)nc3c2F)c1C(F)(F)F [Ex. 44, 4-(6,8-difluoro-2-(((2R,7aS)-2-fluorotetrahydro-1H-pyrrolizin-7a(5H)-yl)methoxy)-7-(6-methyl-5-(trifluoromethyl)-1H-indazol-4-yl)quinazolin-4-yl)-1,4-oxazepane] | 901 nM | 505 nM | 365 nM | 96.3 nM | 235 nM | 1300 nM | > 11100 nM | > 11100 nM
11 | C[C@H]1CCOCCN1c1nc(OC[C@@]23CCCN2C[C@H](F)C3)nc2c(F)c(-c3ccc(F)c4sc(N)c(C#N)c34)c(Cl)cc12 (single isomer, unassigned) [Ex. 19] | 15 nM | 2.4 nM | 2.37 nM | 6.07 nM | 2.32 nM | 34.2 nM | 4310 nM | 2070 nM
